Assay results taken from ChEMBL document CHEMBL4330097 (J Med Chem, 2019).
Values after ≈ are worked out from the molar mass of the structure shown.

Columns and labels:
[1] = Lipophilicity, log D of the compound in acetonitrile/water at 1:1 ratio at pH 7.5 by RP-HPLC analysis; assay type: physicochemical; details: acetonitrile/water 1:1 (RP-HPLC)
[2] = Apparent permeability across basolateral to apical side in human Caco2 cells at 2 uM after 2 hrs by LC-MS/MS analysis; assay type: ADME, cell-based; details: Caco-2
[3] = Maximal oral bioavailability in human; assay type: ADME, organism-based; details: in vivo
[4] = Clearance in human liver microsomes at 1 uM up 60 mins in presence of NADP and glucose-6-phosphate by LC-MS/MS analysis; assay type: ADME, Microsome; details: 1 h
[5] = Chemical stability of the compound assessed as degradation rate at pH 1 to 10 after 24 hrs by HPLC-UV analysis; assay type: physicochemical; details: buffer, pH 1, 24 h
[6] = Clearance in Han/Wistar rat hepatocytes at 1 uM up 90 mins by HPLC-MS/MS analysis; assay type: ADME, cell-based, Hepatocyte
[7] = Apparent permeability across apical to basolateral side in human Caco2 cells at 2 uM after 2 hrs by LC-MS/MS analysis; assay type: ADME, cell-based; details: Caco-2
[8] = Aqueous solubility of the compound in DMSO at 6.5 after 24 hrs by HPLC-MS/MS analysis; assay type: physicochemical; details: aqueous medium with DMSO, pH 6.5
[9] = Maximal oral bioavailability in Han/Wistar rat; assay type: ADME, organism-based; details: in vivo

SMILES: CN1CCN(c2cnc3c(C4CCN(C(=O)c5ccc(OC(F)(F)F)cc5N)CC4)ncnc3c2)CC1 [BAY-885]
- chromatographic logD [1]: 2.4
- Papp B→A at 2 h, 2 µM [2]: 10.7 ×10⁻⁶ cm/s
- Fmax [3]: 38%
- CLH [4]: 13 mL/min/kg
- Stability [5]: Stable
- CLH [6]: 61.7 mL/min/kg
- Papp A→B at 2 h, 2 µM [7]: 18.4 ×10⁻⁶ cm/s
- solubility at 24 h [8]: 218 µg/mL (≈ 423 µM)
- Fmax [9]: 13%
